Data taken from PubChem BioAssay AID248 (DTP/NCI, 2004).
Several values for one entry are separate records, joined by “and”; a condition that tells them apart may be missing. Equal entries are not always repeated. Toxic doses and inconclusive results are not listed.

System: L1210 leukemia ip in BDF1 mice, survival T/C
Test: NCI In Vivo Anticancer Drug Screen. Data for tumor model L1210 Leukemia (intraperitoneal) in B6D2F1 (BDF1) mice
Conditions: endpoint: mean survival time, higher = longer survival
How it was run: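 Transplanted-tumor mice were given test agent; controls received vehicle only. Survival readings from the two groups were divided (treated over control).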

[1] = dose: 100.0 mg/kg/injection, schedule: Q01DX009 (ip), vehicle: saline
[2] = dose: 50.0 mg/kg/injection, schedule: Q01DX009 (ip), vehicle: saline with Tween-80
[3] = dose: 100.0 mg/kg/injection, schedule: Q01DX009 (ip), vehicle: saline with Tween-80
[4] = dose: 200.0 mg/kg/injection, schedule: Q01DX009 (ip), vehicle: saline with Tween-80
[5] = dose: 100.0 mg/kg/injection, schedule: Q01DX009 (ip), vehicle: Klucel (hydroxypropylcellulose) (HPC)
[6] = dose: 100.0 mg/kg/injection, schedule: Q04DX003 (ip), vehicle: Klucel (hydroxypropylcellulose) (HPC)
[7] = dose: 200.0 mg/kg/injection, schedule: Q01DX009 (ip), vehicle: Klucel (hydroxypropylcellulose) (HPC)
[8] = dose: 200.0 mg/kg/injection, schedule: Q04DX003 (ip), vehicle: Klucel (hydroxypropylcellulose) (HPC)
[9] = dose: 400.0 mg/kg/injection, schedule: Q01DX009 (ip), vehicle: Klucel (hydroxypropylcellulose) (HPC)
[10] = dose: 400.0 mg/kg/injection, schedule: Q04DX003 (ip), vehicle: Klucel (hydroxypropylcellulose) (HPC)
[11] = dose: 100.0 mg/kg/injection, schedule: Q04DX003 (ip), vehicle: saline
[12] = dose: 200.0 mg/kg/injection, schedule: Q04DX003 (ip), vehicle: saline
[13] = dose: 100.0 mg/kg/injection, schedule: Q01DX001 (ip), vehicle: saline
[14] = dose: 200.0 mg/kg/injection, schedule: Q01DX001 (ip), vehicle: saline
[15] = dose: 400.0 mg/kg/injection, schedule: Q01DX001 (ip), vehicle: saline

CC1CN1P(=O)(N1CC1C)N1CC1C.CC1CN1P(=O)(N1CC1C)N1CC1C.CC1CN1P(=O)(N1CC1C)N1CC1C.CC1CN1P(=O)(N1CC1C)N1CC1C.[Cu+2].[O-][Cl+3]([O-])([O-])O (centres undefined)
T/C (dose: 25.0 mg/kg/injection, schedule: Q01DX009 (ip), vehicle: saline): 111 % of control | T/C (dose: 25.0 mg/kg/injection, schedule: Q04DX002 (ip), vehicle: saline): 108 % of control | T/C (dose: 50.0 mg/kg/injection, schedule: Q01DX009 (ip), vehicle: saline): 119 % of control | T/C (dose: 50.0 mg/kg/injection, schedule: Q04DX002 (ip), vehicle: saline): 102 % of control | T/C [1]: 92 % of control | T/C (dose: 100.0 mg/kg/injection, schedule: Q04DX002 (ip), vehicle: saline): 108 % of control and 119 % of control

C=C=CC1CCCC1C (centres undefined)
T/C [2]: 110 % of control | T/C [3]: 106 % of control | T/C [4]: 92 % of control

O=C(OC1CSC(OC(=O)c2ccccc2)CS1)c1ccccc1 (centres undefined)
T/C (dose: 100.0 mg/kg/injection, schedule: Q04DX002 (ip), vehicle: saline with Tween-80): 95 % of control | T/C (dose: 200.0 mg/kg/injection, schedule: Q04DX002 (ip), vehicle: saline with Tween-80): 95 % of control | T/C (dose: 400.0 mg/kg/injection, schedule: Q04DX002 (ip), vehicle: saline with Tween-80): 91 % of control

O=C1C(Cl)(Cl)CCCC1(Cl)Cl
T/C [2]: 98 % of control | T/C [3]: 105 % of control | T/C [4]: 110 % of control

CN(C)c1ccc(C(/C=N\O)(c2ccc(N(C)C)cc2)c2ccc(N(C)C)cc2)cc1
T/C [5]: 101 % of control | T/C [6]: 90 % of control | T/C [7]: 96 % of control | T/C [8]: 95 % of control | T/C [9]: 101 % of control | T/C [10]: 93 % of control

CCN(CC)CCOC(=O)Nc1ccc(Cl)cc1
T/C [5]: 93 % of control | T/C [11]: 98 % of control | T/C [7]: 93 % of control | T/C [12]: 98 % of control | T/C [9]: 98 % of control

O=C(O)Cc1ccccc1
T/C (dose: 18.75 mg/kg/injection, schedule: Q01DX009 (ip), vehicle: acetone): 95 % of control | T/C (dose: 37.5 mg/kg/injection, schedule: Q01DX009 (ip), vehicle: acetone): 90 % of control | T/C (dose: 37.5 mg/kg/injection, schedule: Q04DX003 (ip), vehicle: acetone): 96 % of control | T/C (dose: 75.0 mg/kg/injection, schedule: Q01DX001 (ip), vehicle: carboxymethylcellulose (CMC)): 96 % of control | T/C (dose: 75.0 mg/kg/injection, schedule: Q01DX001 (ip), vehicle: saline): 95 % of control | T/C (dose: 75.0 mg/kg/injection, schedule: Q01DX009 (ip), vehicle: acetone): 90 % of control | T/C (dose: 75.0 mg/kg/injection, schedule: Q04DX003 (ip), vehicle: acetone): 91 % of control | T/C (dose: 150.0 mg/kg/injection, schedule: Q01DX001 (ip), vehicle: carboxymethylcellulose (CMC)): 94 % of control | T/C (dose: 150.0 mg/kg/injection, schedule: Q01DX001 (ip), vehicle: saline): 93 % of control | T/C (dose: 150.0 mg/kg/injection, schedule: Q04DX003 (ip), vehicle: acetone): 98 % of control

COC(=O)c1cc2c(s1)C(=O)c1ccccc1-2
T/C [6]: 104 % of control | T/C [8]: 94 % of control | T/C [10]: 105 % of control

O=C(O)C(Oc1ccc(Cl)cc1Cl)C(Oc1ccc(Cl)cc1Cl)C(=O)O (centres undefined)
T/C (dose: 100.0 mg/kg/injection, schedule: Q04DX002 (ip), vehicle: carboxymethylcellulose (CMC)): 98 % of control | T/C (dose: 200.0 mg/kg/injection, schedule: Q04DX002 (ip), vehicle: carboxymethylcellulose (CMC)): 88 % of control | T/C (dose: 400.0 mg/kg/injection, schedule: Q04DX002 (ip), vehicle: Klucel (hydroxypropylcellulose) (HPC)): 155 % of control | T/C (dose: 400.0 mg/kg/injection, schedule: Q04DX002 (ip), vehicle: carboxymethylcellulose (CMC)): 92 % of control | T/C (dose: 800.0 mg/kg/injection, schedule: Q04DX002 (ip), vehicle: carboxymethylcellulose (CMC)): 98 % of control

CC1=CC(=O)NP(=O)(OC2CCCCC2)N1 (centres undefined)
T/C (dose: 100.0 mg/kg/injection, schedule: Q01DX005 (ip), vehicle: sodium bicarbonate): 91 % of control

Cc1cc2c(=O)[nH]c(N)nc2nc1C
T/C (dose: 100.0 mg/kg/injection, schedule: Q01DX Z (ip), vehicle: methylcellulose (MC)): 95 % of control | T/C (dose: 200.0 mg/kg/injection, schedule: Q01DX Z (ip), vehicle: methylcellulose (MC)): 94 % of control

O=S1OCC2(CO1)COS(=O)OC2 (centres undefined)
T/C (dose: 1.56 mg/kg/injection, schedule: Q01DX009 (ip), vehicle: saline): 103 % of control | T/C (dose: 1.56 mg/kg/injection, schedule: Q04DX003 (ip), vehicle: saline): 95 % of control | T/C (dose: 3.12 mg/kg/injection, schedule: Q01DX009 (ip), vehicle: saline): 98 % of control | T/C (dose: 3.12 mg/kg/injection, schedule: Q04DX003 (ip), vehicle: saline): 101 % of control | T/C (dose: 6.25 mg/kg/injection, schedule: Q04DX003 (ip), vehicle: saline): 104 % of control

CCOCC1COC(c2ccc3c(c2)OCO3)O1 (centres undefined)
T/C (dose: 222.0 mg/kg/injection, schedule: Q01DX Z (ip), vehicle: methylcellulose (MC)): 102 % of control | T/C (dose: 333.0 mg/kg/injection, schedule: Q01DX Z (ip), vehicle: methylcellulose (MC)): 104 % of control | T/C (dose: 500.0 mg/kg/injection, schedule: Q01DX Z (ip), vehicle: methylcellulose (MC)): 102 % of control

Cc1ccc(CC(C)(O)CC(C)(O)Cc2ccc(C)cc2)cc1 (centres undefined)
T/C [11]: 100 % of control | T/C [12]: 93 % of control | T/C (dose: 400.0 mg/kg/injection, schedule: Q04DX003 (ip), vehicle: saline): 93 % of control

CCOC(=O)CC(N)CC(=O)OCC
T/C [13]: 104 % of control | T/C [14]: 104 % of control | T/C [15]: 106 % of control

O=C1c2ccccc2C(=O)c2c(O)c(N3CCOCC3)cc(O)c21
T/C (dose: 0.25 mg/kg/injection, schedule: Q04DX003 (ip), vehicle: water): 90 % of control | T/C (dose: 0.5 mg/kg/injection, schedule: Q04DX003 (ip), vehicle: water): 102 % of control | T/C (dose: 1.0 mg/kg/injection, schedule: Q04DX003 (ip), vehicle: water): 110 % of control | T/C (dose: 2.0 mg/kg/injection, schedule: Q04DX003 (ip), vehicle: water): 100 % of control | T/C (dose: 4.0 mg/kg/injection, schedule: Q04DX003 (ip), vehicle: water): 102 % of control | T/C (dose: 8.0 mg/kg/injection, schedule: Q04DX003 (ip), vehicle: water): 100 % of control | T/C (dose: 16.0 mg/kg/injection, schedule: Q04DX003 (ip), vehicle: saline): 102 % of control | T/C (dose: 16.0 mg/kg/injection, schedule: Q04DX003 (ip), vehicle: water): 100 % of control | T/C (dose: 32.0 mg/kg/injection, schedule: Q04DX003 (ip), vehicle: saline): 110 % of control | T/C (dose: 64.0 mg/kg/injection, schedule: Q04DX003 (ip), vehicle: saline): 102 % of control

O=[N+]([O-])c1cc(Cl)ccc1S(=O)(=O)/C=C/c1ccccc1
T/C [13]: 104 % of control | T/C [1]: 94 % of control | T/C [14]: 104 % of control | T/C (dose: 200.0 mg/kg/injection, schedule: Q01DX009 (ip), vehicle: saline): 96 % of control | T/C [15]: 100 % of control | T/C (dose: 400.0 mg/kg/injection, schedule: Q01DX009 (ip), vehicle: saline): 91 % of control

O=C(Nc1ccccc1)OC1CCCC2CCCCC21 (centres undefined)
T/C [6]: 96 % of control | T/C [8]: 96 % of control | T/C [10]: 93 % of control

Cc1c(C#N)oc2c(Cl)cc(Cl)cc12
T/C [5]: 99 % of control | T/C [6]: 100 % of control | T/C [7]: 99 % of control | T/C [8]: 100 % of control | T/C [10]: 101 % of control

CCCCP(=O)(CCC)CCCC
T/C (dose: 100.0 mg/kg/injection, schedule: Q04DX003 (ip), vehicle: saline with Tween-80): 99 % of control | T/C (dose: 200.0 mg/kg/injection, schedule: Q04DX003 (ip), vehicle: saline with Tween-80): 94 % of control | T/C (dose: 400.0 mg/kg/injection, schedule: Q04DX003 (ip), vehicle: saline with Tween-80): 87 % of control

COc1cc([N+](=O)[O-])ccc1NC(=O)Nc1cc(Cl)c(Cl)cc1C
T/C [5]: 94 % of control | T/C [7]: 105 % of control | T/C [9]: 91 % of control

O=C1/C(=C/c2ccncc2)CCc2cc(Cl)ccc21
T/C (dose: 100.0 mg/kg/injection, schedule: Q04DX003 (ip), vehicle: carboxymethylcellulose (CMC)): 107 % of control | T/C (dose: 200.0 mg/kg/injection, schedule: Q04DX003 (ip), vehicle: carboxymethylcellulose (CMC)): 111 % of control | T/C (dose: 400.0 mg/kg/injection, schedule: Q04DX003 (ip), vehicle: carboxymethylcellulose (CMC)): 96 % of control
